Reference: PubChem BioAssay AID328 (DTP/NCI, 2004)
Values joined by “and” are separate entries in the source; they are usually repeats but may differ in a detail not shown here. Identical values can stand only once. Inconclusive results and toxic doses are left out. The calls were made as follows: active = survival T/C of 150% or more; inactive = T/C below 125% in these data.

Tested on: BDF1 mice, P388 leukemia ip, median survival T/C
Experiment: NCI In Vivo Anticancer Drug Screen. Data for tumor model P388 Leukemia (intraperitoneal) in B6D2F1 (BDF1) mice
Settings: endpoint: median survival time, higher = longer survival
How it was run: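 Mice carrying the transplantable tumour receive compound or vehicle. Survival is followed in each arm, and the treated measure is divided by the vehicle measure.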

[1] = dose: 100.0 mg/kg/injection, schedule: Q01DX009 (ip), vehicle: saline with Tween-80
[2] = dose: 100.0 mg/kg/injection, schedule: Q04DX003 (ip), vehicle: saline with Tween-80
[3] = dose: 200.0 mg/kg/injection, schedule: Q04DX003 (ip), vehicle: saline with Tween-80
[4] = dose: 400.0 mg/kg/injection, schedule: Q04DX003 (ip), vehicle: saline with Tween-80
[5] = dose: 50.0 mg/kg/injection, schedule: Q01DX009 (ip), vehicle: Klucel (hydroxypropylcellulose) (HPC)

Measured: T/C

CC(=O)NC(CCCCNC(=O)OCc1ccccc1)C(=O)O (stereo unspecified)
inactive: dose: 50.0 mg/kg/injection, schedule: Q01DX005 (ip), vehicle: saline with Tween-80 90 % of control | dose: 100.0 mg/kg/injection, schedule: Q01DX005 (ip), vehicle: saline with Tween-80 93 % of control | dose: 200.0 mg/kg/injection, schedule: Q01DX005 (ip), vehicle: saline with Tween-80 89 % of control

O=c1[nH]cnc2c(Cl)c(C(Cl)(Cl)Cl)nn12 (tested in a mixture with another compound)
inactive: dose: 50.0 mg/kg/injection, schedule: Q01DX009 (ip), vehicle: saline with Tween-80 99 % of control | [1] 90 % of control and 103 % of control | [2] 111 % of control | dose: 200.0 mg/kg/injection, schedule: Q01DX009 (ip), vehicle: saline with Tween-80 99 % of control and 114 % of control | [3] 104 % of control | dose: 400.0 mg/kg/injection, schedule: Q01DX009 (ip), vehicle: saline with Tween-80 93 % of control and 112 % of control | [4] 102 % of control

O=C1NC(c2ccccc2)(c2ccccc2)C(=O)N1SC(Cl)(Cl)Cl
inactive: dose: 3.12 mg/kg/injection, schedule: Q01DX009 (ip), vehicle: Klucel (hydroxypropylcellulose) (HPC) 123 % of control | dose: 6.25 mg/kg/injection, schedule: Q01DX009 (ip), vehicle: Klucel (hydroxypropylcellulose) (HPC) 120 % of control | dose: 12.5 mg/kg/injection, schedule: Q01DX009 (ip), vehicle: Klucel (hydroxypropylcellulose) (HPC) 120 % of control | dose: 25.0 mg/kg/injection, schedule: Q01DX009 (ip), vehicle: Klucel (hydroxypropylcellulose) (HPC) 117 % of control | [5] 106 % of control

CC1Cc2c(Cl)cc(C(=O)NC(Cc3ccccc3)C(=O)O)c(O)c2C(=O)O1 (stereo unspecified)
inactive: dose: 0.25 mg/kg/injection, schedule: Q01DX009 (ip), vehicle: saline 98 % of control | dose: 0.5 mg/kg/injection, schedule: Q01DX009 (ip), vehicle: saline 116 % of control | dose: 1.0 mg/kg/injection, schedule: Q01DX009 (ip), vehicle: saline 115 % of control

O=C1OC(=O)C2C3CCC(O3)C12 (stereo unspecified)
inactive: dose: 0.39 mg/kg/injection, schedule: Q04DX003 (ip), vehicle: saline 100 % of control | dose: 0.65 mg/kg/injection, schedule: Q01DX001 (ip), vehicle: saline 104 % of control | dose: 0.78 mg/kg/injection, schedule: Q01DX009 (ip), vehicle: saline 105 % of control | dose: 0.78 mg/kg/injection, schedule: Q04DX003 (ip), vehicle: saline 100 % of control | dose: 1.31 mg/kg/injection, schedule: Q01DX001 (ip), vehicle: saline 100 % of control | dose: 1.56 mg/kg/injection, schedule: Q01DX009 (ip), vehicle: saline 100 % of control | dose: 1.56 mg/kg/injection, schedule: Q04DX003 (ip), vehicle: saline 100 % of control | dose: 2.3 mg/kg/injection, schedule: Q04DX003 (ip), vehicle: saline 110 % of control | dose: 2.62 mg/kg/injection, schedule: Q01DX001 (ip), vehicle: saline 100 % of control | dose: 3.5 mg/kg/injection, schedule: Q04DX003 (ip), vehicle: saline 115 % of control | dose: 5.2 mg/kg/injection, schedule: Q04DX003 (ip), vehicle: saline 100 % of control | dose: 5.25 mg/kg/injection, schedule: Q01DX001 (ip), vehicle: Klucel (hydroxypropylcellulose) (HPC) 91 % of control | dose: 5.25 mg/kg/injection, schedule: Q01DX001 (ip), vehicle: saline 95 % of control | dose: 7.2 mg/kg/injection, schedule: Q04DX003 (ip), vehicle: saline 100 % of control | dose: 21.0 mg/kg/injection, schedule: Q01DX001 (ip), vehicle: Klucel (hydroxypropylcellulose) (HPC) 87 % of control

CSc1ncnc2c1ncn2C1OC(CO)C(O)C1O (stereo unspecified)
inactive: dose: 4.0 mg/kg/injection, schedule: Q01DX010 (ip), vehicle: saline 113 % of control | dose: 8.0 mg/kg/injection, schedule: Q01DX010 (ip), vehicle: saline 122 % of control | dose: 32.0 mg/kg/injection, schedule: Q01DX010 (ip), vehicle: saline 118 % of control

C#CCCCOC(=O)Nc1ccccc1
inactive: [5] 90 % of control | dose: 100.0 mg/kg/injection, schedule: Q01DX009 (ip), vehicle: Klucel (hydroxypropylcellulose) (HPC) 90 % of control

CCC1OCC(C(Cl)CCl)O1 (stereo unspecified)
inactive: [1] 118 % of control | [2] 113 % of control | [3] 118 % of control | [4] 104 % of control

O=C1c2ccccc2C(=O)N1CN1C(=O)c2ccccc2C1=O
inactive: dose: 50.0 mg/kg/injection, schedule: Q04DX003 (ip), vehicle: saline with Tween-80 95 % of control | [2] 90 % of control | [3] 86 % of control

Cc1cccc(C(=O)CC(O)(C(F)(F)F)C(F)(F)F)c1
inactive: dose: 100.0 mg/kg/injection, schedule: Q01DX001 (ip), vehicle: saline with Tween-80 104 % of control | dose: 200.0 mg/kg/injection, schedule: Q01DX001 (ip), vehicle: saline with Tween-80 100 % of control | dose: 400.0 mg/kg/injection, schedule: Q01DX001 (ip), vehicle: saline with Tween-80 109 % of control

COc1ccc2nc3c4ccccc4scc-3c2c1
inactive: dose: 25.0 mg/kg/injection, schedule: Q04DX003 (ip), vehicle: Klucel (hydroxypropylcellulose) (HPC) 109 % of control | dose: 50.0 mg/kg/injection, schedule: Q04DX003 (ip), vehicle: Klucel (hydroxypropylcellulose) (HPC) 109 % of control | dose: 100.0 mg/kg/injection, schedule: Q04DX003 (ip), vehicle: Klucel (hydroxypropylcellulose) (HPC) 100 % of control | dose: 148.5 mg/kg/injection, schedule: Q04DX003 (ip), vehicle: Klucel (hydroxypropylcellulose) (HPC) 109 % of control | dose: 150.0 mg/kg/injection, schedule: Q04DX003 (ip), vehicle: Klucel (hydroxypropylcellulose) (HPC) 116 % of control | dose: 225.0 mg/kg/injection, schedule: Q04DX003 (ip), vehicle: Klucel (hydroxypropylcellulose) (HPC) 100 % of control | dose: 337.5 mg/kg/injection, schedule: Q04DX003 (ip), vehicle: Klucel (hydroxypropylcellulose) (HPC) 113 % of control

COc1cc2ccc3c(c2cc1OC)N(C)C(OC)c1cc2c(cc1-3)OCO2 (stereo unspecified)
inactive: dose: 20.0 mg/kg/injection, schedule: Q01DX009 (ip), vehicle: water 104 % of control | dose: 240.0 mg/kg/injection, schedule: Q01DX009 (ip), vehicle: water 95 % of control

COc1ccc(C(C#N)CC(=O)c2ccc(OCc3ccccc3)c(OC)c2)cc1OC (stereo unspecified)
inactive: dose: 50.0 mg/kg/injection, schedule: Q04DX003 (ip), vehicle: other 96 % of control | dose: 100.0 mg/kg/injection, schedule: Q04DX003 (ip), vehicle: other 88 % of control | dose: 200.0 mg/kg/injection, schedule: Q04DX003 (ip), vehicle: other 87 % of control | dose: 400.0 mg/kg/injection, schedule: Q04DX003 (ip), vehicle: other 90 % of control

NC(C(=O)O)C(O)c1cnc[nH]1 (stereo unspecified)
inactive: dose: 25.0 mg/kg/injection, schedule: Q01DX009 (ip), vehicle: water 101 % of control | dose: 50.0 mg/kg/injection, schedule: Q01DX009 (ip), vehicle: water 96 % of control | dose: 100.0 mg/kg/injection, schedule: Q01DX009 (ip), vehicle: water 97 % of control | dose: 200.0 mg/kg/injection, schedule: Q01DX009 (ip), vehicle: water 93 % of control | dose: 400.0 mg/kg/injection, schedule: Q01DX009 (ip), vehicle: water 97 % of control
